The values below come from patent publication US20180360766A1, “OVARIAN CANCER SPECIFICALLY TARGETED BIODEGRADABLE AMPHIPHILIC POLYMER, POLYMER VESICLE PREPARED THEREBY AND USE THEREOF” (BRIGHTGENE BIO-MEDICAL TECHNOLOGY CO., LTD., priority 2016, published 2018).

The subject of data set [1] is A2780 cells. The data set can be described thus: Toxicity of drug-loaded vesicles to A2780 by MTT. Type of data set: cell-based. The following applies: Homo sapiens; A2780, CPT.HCl, 4 h co-cultivation + 44 h; transferrin-CLPs with 30% transferrin.
Data set [2] has as its system A2780 subcutaneous ovarian cancer. Description: Antitumor effect, A2780 subcutaneous ovarian cancer. To be noted: at 10th day.
Data set [3] is described as follows: in vivo. To be noted: Balb/C nude, mouse, 10 mg/kg.

Counter-ions that a name gives are not always drawn.

One may read the IC50 as the concentration that inhibits the measured activity by half. The term half-life denotes the time needed for the level to fall by half in the phase considered.

With `CCc1c2c(nc3ccc(OC(=O)N4CCC(N5CCCCC5)CC4)cc13)-c1cc3c(c(=O)n1C2)COC(=O)[C@]3(O)CC` [CPT.HCl, irinotecan hydrochloride], in data set [1], the IC50 was found to be 4.11 µg/mL. This compound showed a body weight decrease in data set [2] of 18%.
With `COc1cccc2c1C(=O)c1c(O)c3c(c(O)c1C2=O)C[C@@](O)(C(=O)CO)C[C@@H]3O[C@H]1C[C@H](N)[C@H](O)[C@H](C)O1` [DOX.HCl, doxorubicin hydrochloride], the half-life in data set [3] is 16.2 min.
